Test results taken from US20200206198A1, “CFTR CHANNEL ACTIVATOR FOR USE IN THE TREATMENT AND/OR PREVENTION OF GLUTEN SENSITIVITY CONDITIONS” (priority 2017, published 2020).

System: PBMC collected from celiac patients
Assay: Bidimensional co-culture of Caco-2 cells and PBMC from celiac patients
Type: cell-based, human
Protocol: To translate our findings into the relevant clinical setting, we determined whether CFTR potentiators would prevent the HLA-restricted immune response to gliadin by peripheral blood mononuclear cells (PBMC) collected from celiac patients. PBMC collected from 6 celiac patients and 4 healthy controls, were cultured in the lower compartment of a bidimensional co-culture model in which confluent Caco-2 cells were placed in the upper compartment. Then, Caco-2 cells were challenged with PT gliadin or with a combination of P31-43 and P57-68 (or P57-68 alone as a negative control), as described, and IFN-γ and IL-10 were quantified in the supernatants from the lower compartment.
Five ml of peripheral blood have been withdrawn from 8 untreated celiac patients (females and males, age range 8-25 years) and from 3 DQ2+ positive not CD affected controls (healthy first-grade relatives of celiac patients). The Ethics Committee of ISS approved the protocol (# CE/12/341), and patients or patients' parents signed the informed consent. Peripheral blood mononuclear cells were isolated using lympholite (Cederlane, UK) density gradient overlaid by heparin blood diluted 1:1 in PBS and centrifuged (20 min at 900 rpm). After being washed three times, PBMCs were resuspended in complete RPMI 1640 supplemented with 25 mM HEPES, 10% (v/v) heat-inactivated FBS, 100 U/ml penicillin, […] streptomycin, and 1% 2 mM 1-glutamine.
For transwell experiments using polarized Caco-2 cells, 3 weeks prior to the experiment, Caco-2 cells were seeded at a density of 80×10^3 cells×cm^2 on 0.4-μm, 1-cm^2 tissue culture inserts (Costar, Corning Incorporated). Transwell cultures (12-well) with confluent Caco-2 monolayers were used for co-culture with 1 ml PBMC (1.5×10^6 cells/ml) using PBMC medium and kept in an incubator at 37° C. and 5% CO2. Cells were allowed to settle for 1 h before the starting of the experiment. The permeability of the epithelial monolayer was assessed just before the experiments, measuring the transwell electrical resistance between the upper and lower compartments. […]

## CC(C)(C)c1cc(C(C)(C)C)c(NC(=O)c2c[nH]c3ccccc3c2=O)cc1O [VX-770, N-(2,4-di-tert-butyl-5-hydroxyphenyl)-4-oxo-1,4-dihydroquinoline-3-carboxamide]
Celiac PBMC / Caco-2 co-culture
  effect on IFN-γ production induced by the combination of peptides: prevented the production of IFN-γ
Celiac PBMC / Caco-2 co-culture, p<0.01
  IL-10 levels: restored IL-10 levels
p<0.001 vs peptide combination
  effect on IL-15 accumulation in the lower compartment: prevented
